In assay [1] the target is T1, Alpha-2B adrenergic receptor (Homo sapiens, UniProt P18089).
T1 sequence (P18089 whole entry): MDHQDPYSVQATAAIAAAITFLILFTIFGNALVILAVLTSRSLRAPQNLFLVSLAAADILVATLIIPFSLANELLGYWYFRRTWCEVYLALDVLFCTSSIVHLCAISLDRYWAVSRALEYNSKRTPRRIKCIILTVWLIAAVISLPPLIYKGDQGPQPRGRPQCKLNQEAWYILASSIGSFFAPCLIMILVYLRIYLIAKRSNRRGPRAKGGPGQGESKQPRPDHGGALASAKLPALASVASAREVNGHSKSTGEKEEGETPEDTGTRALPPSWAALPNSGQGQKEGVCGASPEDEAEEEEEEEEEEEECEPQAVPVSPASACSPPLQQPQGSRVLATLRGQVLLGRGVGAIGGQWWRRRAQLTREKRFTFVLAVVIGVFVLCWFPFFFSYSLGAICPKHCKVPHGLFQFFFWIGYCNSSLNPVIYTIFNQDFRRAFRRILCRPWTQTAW
Put plainly: Displacement of [3H]RX821002 from human adrenergic alpha-2B receptor expressed in CHO cells. It is filed as cell-based. In general terms: Displacement assays read how much labelled ligand stays bound in the presence of the test substance.

In assay [2] the target is T2, Alpha-2A adrenergic receptor (Homo sapiens, UniProt P08913).
T2 sequence (P08913 whole entry): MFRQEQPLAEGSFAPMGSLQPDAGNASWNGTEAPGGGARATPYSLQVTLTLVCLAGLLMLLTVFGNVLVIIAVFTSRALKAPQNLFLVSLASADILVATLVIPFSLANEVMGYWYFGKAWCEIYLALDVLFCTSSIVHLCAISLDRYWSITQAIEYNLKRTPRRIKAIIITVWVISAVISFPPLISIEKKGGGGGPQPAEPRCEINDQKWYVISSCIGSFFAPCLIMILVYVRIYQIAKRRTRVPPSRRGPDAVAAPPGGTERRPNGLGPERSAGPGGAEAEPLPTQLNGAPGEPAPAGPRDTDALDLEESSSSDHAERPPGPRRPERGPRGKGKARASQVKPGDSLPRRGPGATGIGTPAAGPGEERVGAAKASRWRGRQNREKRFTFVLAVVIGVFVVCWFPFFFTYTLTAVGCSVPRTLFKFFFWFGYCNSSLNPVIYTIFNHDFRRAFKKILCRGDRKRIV
The assay is described as follows: Displacement of [3H]RX821002 from human adrenergic alpha2A receptor expressed in CHO cells. Type of assay: cell-based.

Assay [3] has as its target T3, Alpha-2C adrenergic receptor (Homo sapiens, UniProt P18825).
T3 sequence (P18825 whole entry): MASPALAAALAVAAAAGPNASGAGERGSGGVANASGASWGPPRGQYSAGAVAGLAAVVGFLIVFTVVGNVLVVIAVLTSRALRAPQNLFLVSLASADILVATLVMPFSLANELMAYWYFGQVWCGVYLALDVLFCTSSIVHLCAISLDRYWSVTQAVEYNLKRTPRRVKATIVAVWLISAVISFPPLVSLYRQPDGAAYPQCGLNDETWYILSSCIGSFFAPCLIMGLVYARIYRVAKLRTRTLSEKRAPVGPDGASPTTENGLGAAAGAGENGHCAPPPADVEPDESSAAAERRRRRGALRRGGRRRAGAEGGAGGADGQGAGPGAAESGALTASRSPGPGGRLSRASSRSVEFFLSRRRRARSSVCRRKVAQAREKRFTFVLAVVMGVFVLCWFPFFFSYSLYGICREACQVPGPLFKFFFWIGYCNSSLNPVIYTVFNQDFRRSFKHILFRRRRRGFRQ
It is filed as functional, cell-based, CHO.
Description: Agonist activity at human adrenergic alpha-2C receptor expressed in CHO cells assessed as extracellular acidification by cytosensor microphysiometry

Assay [4] concerns the target T4, Alpha-2C adrenergic receptor (Homo sapiens) (UniProt P18825).
T4 sequence (whole entry): T3 sequence (P18825 whole entry)
Put plainly: (§1) Agonist activity at human adrenergic Alpha-2C receptor expressed in CHO cells assessed as inhibition of forskolin-induced cAMP accumulation. Type of assay: functional, cell-based. On the technique in general: Changes in cAMP serve as a functional read-out for many G protein-coupled receptors.

The target in assay [5] is T3, Alpha-2C adrenergic receptor. Described as §1. It is filed as functional, cell-based.
For assay [6] the target is unchanged. Put plainly: Displacement of [3H]RX821002 from human adrenergic Alpha-2C receptor expressed in CHO cells. It is filed as cell-based.
Assay [7] addresses T5, Alpha-2A adrenergic receptor (Homo sapiens) (UniProt P08913).
T5 sequence (whole entry): T2 sequence (P08913 whole entry)
Put plainly: (§2) Agonist activity at human adrenergic alpha-2A receptor expressed in CHO cells assessed as inhibition of forskolin-induced cAMP accumulation. Type of assay: functional, cell-based.

Assay [8] addresses T2, Alpha-2A adrenergic receptor. Type of assay: functional, cell-based, CHO.
Description: Agonist activity at human adrenergic alpha-2A receptor expressed in CHO cells assessed as extracellular acidification by cytosensor microphysiometry
In assay [9] the target is T1, Alpha-2B adrenergic receptor. Put plainly: Agonist activity at human adrenergic alpha-2B receptor expressed in CHO cells assessed as extracellular acidification by cytosensor microphysiometry. Type of assay: functional, cell-based.
In assay [10] the target is T2, Alpha-2A adrenergic receptor. Described as §2. Type of assay: functional, cell-based.
The next assay concerns the target Nischarin (Homo sapiens, UniProt Q9Y2I1). The assay is described as follows: Binding affinity to imidazoline receptor 1.

Active and inactive are the calls of the source. No cut-off for these calls is given here.

These results are taken from ChEMBL document CHEMBL1149245 (J Med Chem, 2004).

Broadly, the Ki is the dissociation constant of the complex between target and ligand, obtained from inhibition or displacement. Lower therefore signals a stronger hold on the target. The EC50 is the concentration at which the effect is half-maximal.

Nischarin, sequence (Q9Y2I1 whole entry): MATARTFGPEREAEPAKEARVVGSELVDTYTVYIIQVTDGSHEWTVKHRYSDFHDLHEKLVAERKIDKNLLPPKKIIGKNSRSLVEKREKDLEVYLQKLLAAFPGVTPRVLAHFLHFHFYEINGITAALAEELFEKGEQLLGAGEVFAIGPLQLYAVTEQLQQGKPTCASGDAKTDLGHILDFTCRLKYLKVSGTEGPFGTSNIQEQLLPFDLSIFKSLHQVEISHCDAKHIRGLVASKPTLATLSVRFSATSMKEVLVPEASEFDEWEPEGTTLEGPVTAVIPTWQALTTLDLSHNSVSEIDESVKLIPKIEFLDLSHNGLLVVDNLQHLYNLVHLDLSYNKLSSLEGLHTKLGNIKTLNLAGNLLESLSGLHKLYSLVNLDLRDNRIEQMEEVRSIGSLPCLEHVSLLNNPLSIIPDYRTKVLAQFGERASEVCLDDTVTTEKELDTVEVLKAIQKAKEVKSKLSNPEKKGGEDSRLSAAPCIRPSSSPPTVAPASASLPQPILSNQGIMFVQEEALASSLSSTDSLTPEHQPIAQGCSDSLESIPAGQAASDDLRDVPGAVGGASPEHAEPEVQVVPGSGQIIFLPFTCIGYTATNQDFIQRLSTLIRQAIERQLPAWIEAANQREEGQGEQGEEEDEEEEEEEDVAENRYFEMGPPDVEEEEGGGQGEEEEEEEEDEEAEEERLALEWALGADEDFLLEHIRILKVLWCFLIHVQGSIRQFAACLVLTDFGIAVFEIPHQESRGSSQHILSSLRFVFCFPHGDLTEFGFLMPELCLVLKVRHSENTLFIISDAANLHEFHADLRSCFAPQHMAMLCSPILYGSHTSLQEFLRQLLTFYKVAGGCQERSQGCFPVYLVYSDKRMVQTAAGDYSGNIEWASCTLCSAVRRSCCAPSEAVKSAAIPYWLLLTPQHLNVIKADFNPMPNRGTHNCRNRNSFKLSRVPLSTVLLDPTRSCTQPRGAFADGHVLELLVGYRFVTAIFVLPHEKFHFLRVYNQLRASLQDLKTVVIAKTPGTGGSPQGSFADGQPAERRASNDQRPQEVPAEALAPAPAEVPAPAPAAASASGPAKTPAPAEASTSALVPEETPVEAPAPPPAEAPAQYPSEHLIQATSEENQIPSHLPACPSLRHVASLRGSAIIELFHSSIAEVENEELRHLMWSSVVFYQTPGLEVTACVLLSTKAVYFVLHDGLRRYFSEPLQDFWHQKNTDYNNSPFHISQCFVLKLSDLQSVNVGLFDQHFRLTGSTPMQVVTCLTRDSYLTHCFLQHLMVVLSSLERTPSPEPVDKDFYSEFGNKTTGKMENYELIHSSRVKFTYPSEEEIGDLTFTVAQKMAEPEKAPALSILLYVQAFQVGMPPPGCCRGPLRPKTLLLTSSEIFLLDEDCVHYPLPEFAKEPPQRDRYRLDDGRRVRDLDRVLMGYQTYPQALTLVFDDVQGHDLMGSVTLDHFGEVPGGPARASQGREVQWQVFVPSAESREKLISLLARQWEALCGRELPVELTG

On to `CC(Oc1ccccc1-c1cccc([N+](=O)[O-])c1)C1=NCCN1` (stereo unspecified), for which the Ki was 661 nM in assay [1], 60.3 nM in assay [2] and 234 nM in assay [6]. Further, the EC50 in assay [3] is 100 nM; in [5], 158 nM. For the same compound, the Intrinsic activity in assay [4] turned out to be 0.6. Besides, the outcome in assay [7] was inactive.

As to `CC(Oc1ccccc1-c1ccccn1)C1=NCCN1` (stereo unspecified), the Ki in assay [1] is 3310 nM; in [2], 1200 nM; in [6], 1260 nM.

On to `CC(Oc1ccccc1-c1ccccc1[N+](=O)[O-])C1=NCCN1` (stereo unspecified), for which the Ki in assay [1] was 1550 nM; in assay [2], 174 nM; in [6] it was 1230 nM.

For the compound `CC(Oc1ccccc1-c1cccc(N)c1)C1=NCCN1` (stereo unspecified), the Ki in assay [1] was 479 nM; in [2] it was 37.2 nM; in [6], 309 nM. Moreover, the EC50 is 501 nM in assay [3] and 257 nM in assay [8].

In the case of `CC(Sc1ccccc1-c1ccccc1)C1=NCCN1` (stereo unspecified), the figures for the Ki in assay [1], in assay [2] and in [6] were 3550 nM, 339 nM and 708 nM, respectively.

Regarding `CC(Oc1ccccc1-c1ccccc1)C1=NCCC1` (stereo unspecified), the Ki in [1] is 10000 nM; in assay [2], 8130 nM; in [6], 5890 nM.

In the case of `CC(Oc1ccccc1-c1cccs1)C1=NCCN1` (stereo unspecified), the Ki was 214 nM in assay [1], 17 nM in assay [2] and 72.4 nM in [6]. Besides, the concentration giving a half-maximal response (EC50) in assay [3] was 58.9 nM; in assay [8], 41.7 nM; in assay [9], 1000 nM.

Take `CC(Oc1ccccc1-c1cccnc1)C1=NCCN1` (stereo unspecified): the figures for the Ki in assay [1], in [2] and in [6] were 933 nM, 138 nM and 64.6 nM, respectively. Also, the EC50 was 50.1 nM in [3]; 39.8 nM in assay [5]; 316 nM in assay [8]; 1000 nM in assay [9]; 589 nM in assay [10]. Besides, the Intrinsic activity in assay [4] came to 1; in assay [7], 0.5.

As for `c1ccc(-c2ccccc2C2OC2C2=NCCN2)cc1` (cis isomer), the values for the Ki in assay [1], in assay [2] and in assay [6] were 20000 nM, 1230 nM and 6460 nM, respectively. Moreover, the EC50 in assay [3] is 2690 nM; in [8] it was 3470 nM.

Turning to `CC(Oc1ccccc1-c1ccc(O)cc1)C1=NCCN1` (stereo unspecified), the Ki in assay [1] was 813 nM; in assay [2], 33.9 nM; in assay [6] it was 331 nM.

As to `Cc1ccccc1-c1ccccc1OC(C)C1=NCCN1` (stereo unspecified), the Ki in assay [1] is 832 nM; in [2], 46.8 nM; in assay [6], 234 nM. This compound had an EC50 in assay [3] of 363 nM.

On to `c1ccc(-c2ccccc2C2OC2C2=NCCN2)cc1` (stereo unspecified), for which the Ki was 1230 nM in [1], 1510 nM in [2] and 4270 nM in assay [6].

Regarding `CC(Oc1ccccc1-c1cccc(F)c1)C1=NCCN1` (stereo unspecified), the Ki in [1] is 269 nM; in assay [2], 14.8 nM; in [6], 17 nM. For the same compound, the concentration for a half-maximal effect (EC50) is 60.3 nM in assay [3] and 105 nM in [8].

Regarding `CC(Oc1ccccc1-c1ccccc1)C1=NCCO1` (stereo unspecified), the Ki was 10000 nM in [1], 8130 nM in [2] and 5890 nM in assay [6].

`CC(Oc1ccccc1-c1ccccc1)C1=NCCN1` (stereo unspecified) [BIPHENYLINE]: the inhibitory constant (Ki) in [1] is 501 nM; in assay [2] it was 47.9 nM; in assay [6], 200 nM; on Nischarin, 126 nM. Moreover, the results for the EC50 in assay [3], in assay [8] and in assay [9] were 57.5 nM, 115 nM and 646 nM, respectively.

For `CC(Oc1ccccc1-c1ccsc1)C1=NCCN1` (stereo unspecified), the values for the Ki in assay [1], in assay [2] and in assay [6] were 417 nM, 45.7 nM and 132 nM, respectively. Also, the EC50 in [3] is 93.3 nM; in assay [8] it was 75.9 nM.

As for `CC(Nc1ccccc1-c1ccccc1)C1=NCCN1` (stereo unspecified), the values for the Ki in assay [1], in [2] and in assay [6] were 1150 nM, 91.2 nM and 708 nM, respectively. In addition, the EC50 in assay [3] was 93.3 nM; in assay [8], 389 nM; in [9] it was 3800 nM.

With `CC(Oc1ccccc1-c1ccccc1)C1=NCCS1` (stereo unspecified), the Ki in [1], in assay [2] and in [6] was > 10000 nM in each case.

As to `CC(Oc1ccccc1-c1ccccc1O)C1=NCCN1` (stereo unspecified), the Ki was 1000 nM in assay [1], 309 nM in assay [2] and 1620 nM in [6].

On to `CC(Oc1ccccc1-c1ccc([N+](=O)[O-])cc1)C1=NCCN1` (stereo unspecified), for which the results for the Ki in assay [1], in assay [2] and in assay [6] were 501 nM, 123 nM and 302 nM, respectively.

Turning to `Cc1ccc(-c2ccccc2OC(C)C2=NCCN2)cc1` (stereo unspecified), the Ki in assay [1] is 398 nM; in assay [2] it was 41.7 nM; in [6], 251 nM. This compound showed an EC50 in assay [3] of 832 nM.

In the case of `Cc1cccc(-c2ccccc2OC(C)C2=NCCN2)c1` (stereo unspecified), the Ki was 537 nM in assay [1], 51.3 nM in assay [2] and 245 nM in assay [6]. For the same compound, it took 1580 nM to reach a half-maximal effect in [3] (EC50).

Take `CC(Oc1ccccc1-c1ccncc1)C1=NCCN1` (stereo unspecified): the inhibition constant (Ki) is 2690 nM in [1], 282 nM in assay [2] and 1450 nM in assay [6].

For the compound `CC(Oc1ccccc1-c1cccc(O)c1)C1=NCCN1` (stereo unspecified), the Ki in assay [1] is 355 nM; in assay [2], 27.5 nM; in assay [6], 17.8 nM. Further, the values for the EC50 in assay [3] and in assay [9] were 46.8 nM and 5250 nM, respectively.
